Publication PMC11941790, “Reactions of Plasmodium falciparum Type II NADH: Ubiquinone Oxidoreductase with Nonphysiological Quinoidal and Nitroaromatic Oxidants” (International Journal of Molecular Sciences, 2025)

Columns and labels:
[1] = target: T1, type II NADH:ubiquinone oxidoreductase (PfNDH2) (Plasmodium falciparum, UniProt Q8I302); assay: steady-state kinetics, competitive inhibition vs NADH; format: biochemical
T1 construct: gene PF3D7_0915000; His-tagged PfNDH2 (pET45, E. coli)
T1 sequence (Q8I302 31-533): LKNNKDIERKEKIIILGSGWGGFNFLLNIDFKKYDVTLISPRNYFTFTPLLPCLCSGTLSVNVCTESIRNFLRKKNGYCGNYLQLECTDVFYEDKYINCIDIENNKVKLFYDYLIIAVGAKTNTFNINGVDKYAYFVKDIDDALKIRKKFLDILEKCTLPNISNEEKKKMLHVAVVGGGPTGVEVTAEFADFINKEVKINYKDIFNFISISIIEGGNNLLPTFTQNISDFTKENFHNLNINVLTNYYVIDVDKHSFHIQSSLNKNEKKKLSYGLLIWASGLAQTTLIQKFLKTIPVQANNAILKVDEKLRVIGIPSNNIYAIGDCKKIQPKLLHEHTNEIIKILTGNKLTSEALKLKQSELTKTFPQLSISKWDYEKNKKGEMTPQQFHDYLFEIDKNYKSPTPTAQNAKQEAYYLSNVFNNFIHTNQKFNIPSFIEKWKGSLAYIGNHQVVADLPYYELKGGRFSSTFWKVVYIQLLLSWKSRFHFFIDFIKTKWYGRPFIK

[2] = target: T1, type II NADH:ubiquinone oxidoreductase (PfNDH2); assay: steady-state kinetics, competitive product inhibition vs NADH with naphthazarin as acceptor; format: biochemical

Row | SMILES | Ki [1] [mM] | Ki [2] [mM]
1 | Nc1ncnc2c1ncn2[C@@H]1O[C@H](COP(=O)(O)OP(=O)(O)OC[C@H]2OC(O)[C@H](O)[C@@H]2O)[C@@H](O)[C@H]1O (some centres unmarked) [ADP-ribose] | 2.5 ± 0.3 | 
2 | NC(=O)c1ccc[n+]([C@@H]2O[C@H](COP(=O)([O-])OP(=O)(O)OC[C@H]3O[C@@H](n4cnc5c(N)ncnc54)[C@H](O)[C@@H]3O)[C@@H](O)[C@H]2O)c1 [NAD^+] |  | 3.7 ± 0.4
